Data reported in ChEMBL document CHEMBL1201862, “PubChem BioAssay data set” (2004).
Calls of active or inactive are those of the source.

Tests used:
[1] = inhibition of ARNT PAS-B/TACC3 complex formation – biochemical, AlphaScreen, cherry-picked samples, confirmation (AID 651703); format: functional, Homo sapiens;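 further: His-tagged ARNT PAS-B domain paired with GST-TACC3 E629A dimer coactivator fragment; potency of inhibitors that break up the complex and lower AlphaScreen signal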
[2] = biological target: Photoreceptor-specific nuclear receptor (Homo sapiens, UniProt Q9Y5X4); format: functional, cell-based;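 further: CHO-S cells with Gal4-NCOR and VP16-NR2E3 two-hybrid luciferase reporter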
Chain of Photoreceptor-specific nuclear receptor (Q9Y5X4 whole entry, the tested form may be a part): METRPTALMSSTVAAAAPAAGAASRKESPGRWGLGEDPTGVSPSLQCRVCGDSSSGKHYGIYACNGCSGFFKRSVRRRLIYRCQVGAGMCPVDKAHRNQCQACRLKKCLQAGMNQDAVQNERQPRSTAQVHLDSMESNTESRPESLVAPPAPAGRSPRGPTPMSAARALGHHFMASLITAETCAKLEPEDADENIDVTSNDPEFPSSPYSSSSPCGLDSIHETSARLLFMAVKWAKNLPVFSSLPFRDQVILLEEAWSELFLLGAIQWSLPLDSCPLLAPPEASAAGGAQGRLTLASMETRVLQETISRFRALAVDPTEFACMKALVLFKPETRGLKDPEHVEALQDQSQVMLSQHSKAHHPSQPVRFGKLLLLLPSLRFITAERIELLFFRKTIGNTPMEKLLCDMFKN

[3] = viability of uninfected HEp-2 cells – cell-based, HTS, cytotoxicity control for RSV inhibitor project, dose response (AID 2410); format: functional; conditions: human respiratory syncytial virus
[4] = test system: Streptococcus sp. 'group A'; assay: Streptococcus pyogenes SK(-)GAS viability under kanamycin – luminescence, BacTiterGlo, confirmation, counter-screen for streptokinase expression inhibitor project, dose response (AID 1900); format: functional, organism-based
[5] = biological target: T1, Streptokinase A (Streptococcus pyogenes serotype M1, UniProt P10520); assay: viability-normalized secreted streptokinase activity reduction – plasminogen activation absorbance, OD405, dose response (AID 1914); format: functional, Streptococcus pyogenes M1 GAS;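 further: secreted streptokinase activity via plasminogen activation per viability signal from cell pellet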
T1 sequence (P10520 whole entry): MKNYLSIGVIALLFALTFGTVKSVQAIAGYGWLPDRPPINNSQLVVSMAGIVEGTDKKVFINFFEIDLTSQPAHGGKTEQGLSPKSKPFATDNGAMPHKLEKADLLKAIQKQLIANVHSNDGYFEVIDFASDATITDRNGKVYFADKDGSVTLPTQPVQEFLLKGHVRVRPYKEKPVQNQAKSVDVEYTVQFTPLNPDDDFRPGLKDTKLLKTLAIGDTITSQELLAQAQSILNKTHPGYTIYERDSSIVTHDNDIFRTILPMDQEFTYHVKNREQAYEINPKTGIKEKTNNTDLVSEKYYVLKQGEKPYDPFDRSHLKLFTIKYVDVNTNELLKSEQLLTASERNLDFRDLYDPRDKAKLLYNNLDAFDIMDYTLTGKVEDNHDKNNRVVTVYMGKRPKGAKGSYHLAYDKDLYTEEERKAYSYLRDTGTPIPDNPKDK

[6] = Trypanosoma cruzi growth suppression in host cells – NIH3T3 host cells, beta-gal luminescence, confirmation (AID 2044); format: functional, cell-based;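 further: intracellular parasites grown in NIH/3T3 mouse fibroblasts as host cells; luminescent beta-galactosidase reporter signal from transgenic T. cruzi replicating inside host cells; inhibitors lower the luminescence signal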
[7] = NIH3T3 cell viability loss – ATP luminescence, mouse fibroblasts, counter-screen, dose response (AID 2010); format: functional, cell-based;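 further: cells exposed to compound for about 90 hours before reading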
[8] = test system: Streptococcus; assay: GAS UMAA2166 growth inhibition – luminescence, BacTiterGlo, counter-screen for streptokinase expression inhibitor project, dose response (AID 1915); format: functional, organism-based;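 further: potency for reduction of bacterial viability or growth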
[9] = Luminescence Cell-Based Dose Retest to Confirm Inhibitors of Cancer Stem Cells. [Related pubchem assays (depositor defined):AID2717, AID2721]; format: functional; conditions: Homo sapiens
[10] = biological target: Melanocortin receptor 4 (Homo sapiens, UniProt P32245); assay: inhibitors of MC4R cAMP signaling – cell-based, TR-FRET, biased antagonists, dose response (AID 602298); format: functional;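 further: antagonist potency against agonist-stimulated cAMP production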
Chain of Melanocortin receptor 4 (P32245 whole entry): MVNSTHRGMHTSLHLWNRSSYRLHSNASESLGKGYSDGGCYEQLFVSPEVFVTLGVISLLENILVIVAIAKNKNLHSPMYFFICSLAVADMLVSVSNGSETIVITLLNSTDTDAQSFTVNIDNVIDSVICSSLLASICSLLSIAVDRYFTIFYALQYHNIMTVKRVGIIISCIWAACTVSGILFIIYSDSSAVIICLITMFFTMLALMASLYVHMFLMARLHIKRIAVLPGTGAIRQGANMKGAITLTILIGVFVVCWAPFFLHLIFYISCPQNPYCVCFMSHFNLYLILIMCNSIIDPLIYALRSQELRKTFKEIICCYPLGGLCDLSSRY

[11] = cAMP pathway inhibition in counterscreen cell line – TR-FRET cAMP detection, counter-screen for MC4R biased antagonist project, dose response (AID 602305); format: functional, cell-based;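 further: U2OS cells stimulated with forskolin near its EC80 as the cAMP inducer; potency is for inhibition of forskolin-stimulated cAMP signaling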
[12] = biological target: Ras and Rab interactor 1/Tyrosine-protein kinase ABL1 (Homo sapiens, UniProt P00519+Q13671); format: functional;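 further: biochemical TR-FRET dose-response test measuring inhibition of binding between Rin1 and Abl proteins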
Chain of Ras and Rab interactor 1/Tyrosine-protein kinase ABL1 (P00519 whole entry): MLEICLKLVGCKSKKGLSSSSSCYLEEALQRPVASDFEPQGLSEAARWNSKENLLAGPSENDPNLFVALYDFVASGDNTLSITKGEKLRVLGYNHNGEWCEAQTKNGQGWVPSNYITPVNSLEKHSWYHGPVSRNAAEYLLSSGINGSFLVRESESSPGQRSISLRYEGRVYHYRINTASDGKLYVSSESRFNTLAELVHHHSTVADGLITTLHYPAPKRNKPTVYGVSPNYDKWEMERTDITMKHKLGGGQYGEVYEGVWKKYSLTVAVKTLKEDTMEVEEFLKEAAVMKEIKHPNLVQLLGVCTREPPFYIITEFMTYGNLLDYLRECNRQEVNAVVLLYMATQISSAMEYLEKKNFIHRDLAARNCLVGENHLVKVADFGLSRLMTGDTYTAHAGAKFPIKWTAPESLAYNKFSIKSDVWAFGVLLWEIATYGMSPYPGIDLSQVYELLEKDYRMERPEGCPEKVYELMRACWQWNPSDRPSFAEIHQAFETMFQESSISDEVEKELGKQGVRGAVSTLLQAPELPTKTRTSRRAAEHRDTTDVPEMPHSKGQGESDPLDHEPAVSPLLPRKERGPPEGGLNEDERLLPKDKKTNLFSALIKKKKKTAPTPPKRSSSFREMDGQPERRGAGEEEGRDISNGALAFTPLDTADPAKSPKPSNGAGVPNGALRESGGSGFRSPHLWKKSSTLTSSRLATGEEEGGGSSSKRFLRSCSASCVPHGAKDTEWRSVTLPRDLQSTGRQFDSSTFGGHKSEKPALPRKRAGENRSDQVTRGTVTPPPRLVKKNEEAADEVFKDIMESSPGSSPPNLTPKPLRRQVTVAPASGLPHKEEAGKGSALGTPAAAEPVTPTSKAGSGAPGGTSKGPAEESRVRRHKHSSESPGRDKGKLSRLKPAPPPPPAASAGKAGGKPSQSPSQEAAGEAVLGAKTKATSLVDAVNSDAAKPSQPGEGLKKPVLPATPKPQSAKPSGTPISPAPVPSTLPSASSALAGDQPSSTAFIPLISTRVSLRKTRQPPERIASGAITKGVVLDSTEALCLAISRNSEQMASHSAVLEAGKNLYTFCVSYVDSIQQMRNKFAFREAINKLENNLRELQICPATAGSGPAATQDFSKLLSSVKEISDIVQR
Chain of Ras and Rab interactor 1/Tyrosine-protein kinase ABL1 (Q13671 whole entry): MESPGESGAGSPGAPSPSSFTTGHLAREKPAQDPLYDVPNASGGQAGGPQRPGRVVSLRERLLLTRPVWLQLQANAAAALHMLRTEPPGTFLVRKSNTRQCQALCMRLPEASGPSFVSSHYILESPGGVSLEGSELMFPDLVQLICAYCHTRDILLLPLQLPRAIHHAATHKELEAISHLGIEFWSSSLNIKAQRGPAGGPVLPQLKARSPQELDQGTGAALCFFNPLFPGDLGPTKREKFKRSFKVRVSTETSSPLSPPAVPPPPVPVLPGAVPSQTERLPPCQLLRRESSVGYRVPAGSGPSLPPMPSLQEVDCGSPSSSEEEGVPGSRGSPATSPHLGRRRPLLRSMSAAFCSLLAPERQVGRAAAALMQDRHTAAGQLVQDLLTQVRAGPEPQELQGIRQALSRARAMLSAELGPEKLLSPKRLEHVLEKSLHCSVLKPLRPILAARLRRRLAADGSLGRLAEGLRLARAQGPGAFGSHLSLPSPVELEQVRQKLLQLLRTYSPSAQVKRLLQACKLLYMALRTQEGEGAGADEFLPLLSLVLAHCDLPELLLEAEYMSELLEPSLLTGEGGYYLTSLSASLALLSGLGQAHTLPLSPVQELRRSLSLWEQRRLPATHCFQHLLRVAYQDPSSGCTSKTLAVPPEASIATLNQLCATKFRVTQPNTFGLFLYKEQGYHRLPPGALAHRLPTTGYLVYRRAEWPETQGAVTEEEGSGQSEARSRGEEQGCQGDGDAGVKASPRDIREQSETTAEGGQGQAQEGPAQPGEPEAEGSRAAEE

[13] = biological target: Luciferin 4-monooxygenase (Photinus pyralis, UniProt P08659); assay: Counter Screen for Luciferase-based Assay Positives. [Related pubchem assays: 620, 618, 411 ]
Chain of Luciferin 4-monooxygenase (P08659 whole entry): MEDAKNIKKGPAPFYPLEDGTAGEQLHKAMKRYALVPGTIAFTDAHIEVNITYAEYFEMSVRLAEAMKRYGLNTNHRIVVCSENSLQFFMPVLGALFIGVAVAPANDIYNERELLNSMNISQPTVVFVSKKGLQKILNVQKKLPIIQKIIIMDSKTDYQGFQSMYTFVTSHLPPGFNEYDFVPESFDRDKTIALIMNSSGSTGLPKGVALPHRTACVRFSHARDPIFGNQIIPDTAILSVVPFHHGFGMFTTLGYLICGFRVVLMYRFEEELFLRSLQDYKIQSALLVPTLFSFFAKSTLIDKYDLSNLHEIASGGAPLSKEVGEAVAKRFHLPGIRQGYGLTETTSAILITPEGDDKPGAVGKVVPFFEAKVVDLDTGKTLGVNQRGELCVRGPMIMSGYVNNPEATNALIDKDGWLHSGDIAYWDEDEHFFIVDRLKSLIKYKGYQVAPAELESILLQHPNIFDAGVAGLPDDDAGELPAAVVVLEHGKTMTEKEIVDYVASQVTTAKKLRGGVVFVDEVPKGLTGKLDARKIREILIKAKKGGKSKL

[14] = test system: HT-1080; assay: HT1080 cell viability loss – fluorescence readout (AID 620); format: functional, cell-based; conditions: Homo sapiens
[15] = biological target: T2, Short transient receptor potential channel 4 (Mus musculus, UniProt Q9QUQ5); assay: calcium entry via TRPC4 opening agents – cell-based, HEK293 TRPC4/mu-opioid, Fluo-4 calcium, dose response (AID 434937); format: functional
T2 sequence (Q9QUQ5 whole entry): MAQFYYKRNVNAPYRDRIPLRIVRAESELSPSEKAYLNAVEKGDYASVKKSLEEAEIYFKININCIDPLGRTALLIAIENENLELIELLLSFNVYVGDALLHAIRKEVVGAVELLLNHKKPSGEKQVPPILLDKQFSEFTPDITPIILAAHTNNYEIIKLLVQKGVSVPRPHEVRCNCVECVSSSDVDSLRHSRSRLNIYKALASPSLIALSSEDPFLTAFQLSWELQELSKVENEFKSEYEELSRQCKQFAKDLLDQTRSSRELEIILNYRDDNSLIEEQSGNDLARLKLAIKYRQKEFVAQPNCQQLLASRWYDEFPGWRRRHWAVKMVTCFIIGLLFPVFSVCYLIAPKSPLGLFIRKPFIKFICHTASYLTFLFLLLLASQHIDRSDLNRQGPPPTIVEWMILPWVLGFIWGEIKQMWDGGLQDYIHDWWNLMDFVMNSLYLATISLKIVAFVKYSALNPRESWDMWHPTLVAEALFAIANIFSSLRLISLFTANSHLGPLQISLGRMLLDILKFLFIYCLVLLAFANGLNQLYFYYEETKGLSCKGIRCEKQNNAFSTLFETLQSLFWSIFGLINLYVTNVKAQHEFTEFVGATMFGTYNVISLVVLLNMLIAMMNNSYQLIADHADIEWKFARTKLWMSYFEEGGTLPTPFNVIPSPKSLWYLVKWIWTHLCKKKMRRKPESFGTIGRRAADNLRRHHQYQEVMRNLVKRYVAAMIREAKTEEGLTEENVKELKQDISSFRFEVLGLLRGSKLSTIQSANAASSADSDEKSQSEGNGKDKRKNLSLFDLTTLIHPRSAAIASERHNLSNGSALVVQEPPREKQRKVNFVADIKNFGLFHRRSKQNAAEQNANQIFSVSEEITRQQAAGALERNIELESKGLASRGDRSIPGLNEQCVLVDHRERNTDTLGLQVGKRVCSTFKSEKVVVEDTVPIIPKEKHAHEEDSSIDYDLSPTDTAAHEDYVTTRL

[16] = biological target: T3, Low molecular weight phosphotyrosine protein phosphatase (Homo sapiens, UniProt P24666); format: functional; conditions: read-out: IC50_Mean;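 further: Dose-response confirmation assay measuring inhibition of LMPTP enzyme activity by fluorescence intensity read-out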
T3 sequence (P24666 whole entry): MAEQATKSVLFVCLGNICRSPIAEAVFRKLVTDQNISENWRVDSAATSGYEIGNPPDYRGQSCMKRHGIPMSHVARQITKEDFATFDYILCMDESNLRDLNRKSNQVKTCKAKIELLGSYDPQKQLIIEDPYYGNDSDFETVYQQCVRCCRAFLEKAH

[17] = biological target: T4, Tyrosine-protein phosphatase non-receptor type 22 (Homo sapiens, UniProt Q9Y2R2); assay: PTPN22 enzyme inhibitors – biochemical, fluorescence, LYP catalytic domain, selectivity assay for LMPTP inhibitor project, dose response (AID 652006); format: functional; conditions: read-out: IC50_Mean
T4 sequence (Q9Y2R2 whole entry): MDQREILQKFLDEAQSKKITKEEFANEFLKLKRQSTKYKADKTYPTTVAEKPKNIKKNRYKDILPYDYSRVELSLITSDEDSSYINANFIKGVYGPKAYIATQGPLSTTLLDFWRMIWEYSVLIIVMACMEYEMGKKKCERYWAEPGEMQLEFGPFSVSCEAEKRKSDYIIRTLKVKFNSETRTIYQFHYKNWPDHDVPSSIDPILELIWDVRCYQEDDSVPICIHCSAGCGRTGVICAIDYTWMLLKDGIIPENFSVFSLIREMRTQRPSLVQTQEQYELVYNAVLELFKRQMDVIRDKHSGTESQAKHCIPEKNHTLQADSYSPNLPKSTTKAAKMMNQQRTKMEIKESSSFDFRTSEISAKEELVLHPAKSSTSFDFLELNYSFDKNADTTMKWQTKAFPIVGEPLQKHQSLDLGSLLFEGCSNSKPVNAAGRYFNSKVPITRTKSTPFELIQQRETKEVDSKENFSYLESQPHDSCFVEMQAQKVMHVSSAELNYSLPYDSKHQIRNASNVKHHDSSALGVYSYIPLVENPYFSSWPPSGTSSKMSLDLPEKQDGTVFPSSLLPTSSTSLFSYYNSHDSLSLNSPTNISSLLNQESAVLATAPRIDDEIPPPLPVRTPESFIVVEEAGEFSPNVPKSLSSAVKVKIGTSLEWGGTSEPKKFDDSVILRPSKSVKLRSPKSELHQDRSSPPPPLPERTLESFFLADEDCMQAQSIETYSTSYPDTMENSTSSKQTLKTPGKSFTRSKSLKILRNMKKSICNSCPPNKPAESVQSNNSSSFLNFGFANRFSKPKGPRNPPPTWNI

C/C(CC(=O)Nc1ccc(F)cc1)=N\NC(=O)c1ccccn1
AC50 [1]: 89.2 µM (active)

Cc1nc2ccc(S(=O)(=O)Nc3cccc(-c4nc5cccnc5s4)c3)cc2s1
IC50 [2]: 2.01 µM (active)

CC(C)C1C(c2ccccc2)N(C)C(c2ccccc2)CC1(O)c1ccccc1 (centres undefined)
CC50 [3]: 25.3 µM (active)
EC50 [4]: 1.55 µM (active)
EC50 [5]: 2.22 µM (active)
EC50 [6]: 2.43 µM (active)
EC50 [7]: > 60 µM (not active)
EC50 [8]: 7.03 µM (active)
AC50 [9]: 1.9 µM (active)
IC50 [10]: > 64.6 µM (inactive)
IC50 [11]: > 64.6 µM (inactive)

CCCCSCc1[nH]c(O)nc1C(=O)CCCCC(=O)OCC
IC50 [12]: 4.76 µM (active)

N#Cc1cc2c(nc1SCC(=O)Nc1nccs1)CCCCC2
EC50 [13]: > 100 µM (not active)
EC50 [14]: > 50 µM (not active)
IC50 [10]: 11.8 µM (inactive)
IC50 [11]: 14.9 µM (inactive)

CC(Nc1nc(N2CCNCC2)nc2ccccc12)c1ccccc1 (centres undefined)
EC50 [15]: 5.31 µM (active)
IC50 [16]: 13.8 µM (active)
IC50 [17]: 37.9 µM (inactive)
